For one experiment, the target named is T1, human TLR7 (Homo sapiens, UniProt Q9NYK1).
T1 construct: host or cells: HEK293 (HEK-Blue hTLR7)
T1 sequence (Q9NYK1 27-1049): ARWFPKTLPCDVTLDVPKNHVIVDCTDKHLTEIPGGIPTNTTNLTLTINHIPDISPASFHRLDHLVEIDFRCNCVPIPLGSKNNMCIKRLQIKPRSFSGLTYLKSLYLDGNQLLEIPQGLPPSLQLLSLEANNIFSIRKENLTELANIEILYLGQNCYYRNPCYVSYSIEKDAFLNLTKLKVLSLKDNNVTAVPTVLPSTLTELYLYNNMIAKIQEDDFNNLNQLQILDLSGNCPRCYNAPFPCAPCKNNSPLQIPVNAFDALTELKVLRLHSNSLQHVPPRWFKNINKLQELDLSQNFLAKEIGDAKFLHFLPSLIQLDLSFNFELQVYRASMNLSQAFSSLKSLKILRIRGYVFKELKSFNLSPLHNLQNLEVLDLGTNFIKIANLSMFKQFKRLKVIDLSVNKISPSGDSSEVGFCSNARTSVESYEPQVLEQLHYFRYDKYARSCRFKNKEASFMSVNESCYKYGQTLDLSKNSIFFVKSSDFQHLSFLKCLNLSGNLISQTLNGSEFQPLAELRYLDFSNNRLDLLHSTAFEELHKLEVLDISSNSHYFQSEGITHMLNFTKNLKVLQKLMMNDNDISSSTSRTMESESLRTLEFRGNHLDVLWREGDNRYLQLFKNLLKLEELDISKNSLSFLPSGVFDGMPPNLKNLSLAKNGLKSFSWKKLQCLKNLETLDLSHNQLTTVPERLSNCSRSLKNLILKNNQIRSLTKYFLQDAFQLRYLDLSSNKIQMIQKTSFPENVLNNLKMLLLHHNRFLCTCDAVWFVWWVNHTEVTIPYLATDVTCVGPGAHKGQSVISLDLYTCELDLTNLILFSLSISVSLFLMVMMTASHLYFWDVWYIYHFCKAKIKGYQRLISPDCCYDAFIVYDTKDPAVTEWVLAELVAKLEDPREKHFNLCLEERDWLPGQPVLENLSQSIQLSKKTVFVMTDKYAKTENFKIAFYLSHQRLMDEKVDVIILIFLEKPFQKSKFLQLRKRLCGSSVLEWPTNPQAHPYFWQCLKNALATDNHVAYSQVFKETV
As to the kind of experiment: HEK293-Blue-hTLR-7 cells assay. Conditions: HEK293-Blue-hTLR7 cells, R848 stimulation, 20 hrs, SEAP reporter; read-out: HEK/hTLR7 IC50. Type of experiment: cell-based. The protocol:
The following tests were carried out in order to determine the activity of the compounds of formula (I) and (Ia) in HEK293-Blue-hTLR-7/8/9 cells assay.
HEK293-Blue-hTLR-7 cells assay:
A stable HEK293-Blue-hTLR-7 cell line was purchased from InvivoGen (Cat. #: hkb-htlr7, San Diego, Calif., USA). These cells were originally designed for studying the stimulation of human TLR7 by monitoring the activation of NF-κB. A SEAP (secreted embryonic alkaline phosphatase) reporter gene was placed under the control of the […] minimal promoter fused to five NF-κB and AP-1-binding sites. The SEAP was induced by activating NF-κB and AP-1 via stimulating HEK-Blue hTLR7 cells with TLR7 ligands. Therefore, the reporter expression was declined by TLR7 antagonist under the stimulation of a ligand, such as R848 (Resiquimod), for incubation of 20 hrs. The cell culture supernatant SEAP reporter activity was determined using QUANTI-Blue™ kit (Cat. #: rep-qb1, Invivogen, San Diego, Calif., USA) at a wavelength of 640 nm, a detection medium that turns purple or blue in the presence of alkaline phosphatase.
Then 20 μL of the supernatant from each well was incubated with […] Quanti-blue substrate solution at 37° C. for 2 hrs and the absorbance was read at 620-655 nm using a spectrophotometer. The signaling pathway that TLR7 activation leads to downstream NF-κB activation has been widely accepted, and therefore similar reporter assay was modified for evaluating TLR7 antagonist.

The target in the next experiment is T2, human TLR8 (Homo sapiens, UniProt Q9NR97).
T2 sequence (Q9NR97 27-1041): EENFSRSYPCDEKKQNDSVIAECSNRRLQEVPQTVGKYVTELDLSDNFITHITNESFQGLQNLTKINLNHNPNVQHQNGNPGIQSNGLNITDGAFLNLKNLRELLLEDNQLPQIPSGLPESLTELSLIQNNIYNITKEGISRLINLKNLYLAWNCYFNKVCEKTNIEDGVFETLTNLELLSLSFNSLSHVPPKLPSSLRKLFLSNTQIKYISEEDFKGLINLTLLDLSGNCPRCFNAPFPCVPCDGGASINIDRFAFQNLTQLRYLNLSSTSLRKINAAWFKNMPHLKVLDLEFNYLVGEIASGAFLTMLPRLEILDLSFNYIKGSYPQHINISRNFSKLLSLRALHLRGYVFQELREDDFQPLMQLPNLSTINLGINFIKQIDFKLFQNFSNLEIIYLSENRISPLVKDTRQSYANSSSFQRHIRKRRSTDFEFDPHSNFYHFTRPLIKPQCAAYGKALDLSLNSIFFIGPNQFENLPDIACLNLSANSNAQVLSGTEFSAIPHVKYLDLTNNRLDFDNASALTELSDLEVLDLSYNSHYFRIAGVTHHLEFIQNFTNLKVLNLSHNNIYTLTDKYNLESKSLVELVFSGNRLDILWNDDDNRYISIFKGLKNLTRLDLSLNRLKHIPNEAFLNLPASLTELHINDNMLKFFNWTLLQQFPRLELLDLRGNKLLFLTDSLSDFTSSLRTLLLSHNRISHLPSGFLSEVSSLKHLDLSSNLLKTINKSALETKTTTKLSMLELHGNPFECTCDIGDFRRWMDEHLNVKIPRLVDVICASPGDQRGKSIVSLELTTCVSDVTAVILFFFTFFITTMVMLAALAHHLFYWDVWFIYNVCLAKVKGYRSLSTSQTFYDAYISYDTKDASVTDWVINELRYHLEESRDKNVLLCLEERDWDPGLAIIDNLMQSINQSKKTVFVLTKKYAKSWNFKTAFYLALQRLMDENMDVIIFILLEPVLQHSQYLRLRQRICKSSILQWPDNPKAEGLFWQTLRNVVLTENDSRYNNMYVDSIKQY
As to the kind of experiment: HEK293-Blue-hTLR-8 cells assay.

With `[2H]c1ccc2c(N3C[C@@H]4CN(CCc5ccc(N6C[C@@H](N)[C@H](OC)C6)nc5)CCN4[C@H](C)C3)ccc(C#N)c2n1` [Example 62, 5-[(4R,9aS)-8-[2-[6-[(3R,4R)-3-amino-4-methoxy-pyrrolidin-1-yl]-3-pyridyl]ethyl]-4-methyl-3,4,6,7,9,9a-hexahydro-1H-pyrazino[1,2-a]pyrazin-2-yl]-2-deuterio-quinoline-8-carbonitrile], the IC50 came out at 23 nM on human TLR7 and 17 nM on human TLR8.

For `[2H]c1ccc2c(N3C[C@@H]4CN(Cc5ccc(N6CCNCC6)nc5)CCN4[C@H](C)C3)ccc(C#N)c2n1` [Example 78, 5-[(4R,9aS)-4-methyl-8-[(6-piperazin-1-yl-3-pyridyl)methyl]-3,4,6,7,9,9a-hexahydro-1H-pyrazino[1,2-a]pyrazin-2-yl]-2-deuterio-quinoline-8-carbonitrile], the IC50 on human TLR7 came out at 35 nM; at human TLR8, 17 nM.

`Cc1cc(N2CC3(CN(C)C3)C2)cnc1N1CCN2[C@@H](C1)CN(c1cc(=O)n(C)c3ncccc13)C[C@@H]2C` [Example 113, 4-[(4S,9aR)-4-methyl-8-[3-methyl-5-(6-methyl-2,6-diazaspiro[3.3]heptan-2-yl)-2-pyridyl]-3,4,6,7,9,9a-hexahydro-1H-pyrazino[1,2-a]pyrazin-2-yl]-1-methyl-1,8-naphthyridin-2-one]: the values for the IC50 at human TLR7 and at human TLR8 were 6 nM and 142 nM, respectively.

In the case of `[2H]c1ccc2c(N3C[C@@H]4CN(c5ncc(C(=O)N6CC7(CN(C)C7)C6)cc5C)CCN4[C@H](C)C3)ccc(C#N)c2n1` [Example 102, 5-[(4R,9aR)-4-methyl-8-[3-methyl-5-(6-methyl-2,6-diazaspiro[3.3]heptane-2-carbonyl)-2-pyridyl]-3,4,6,7,9,9a-hexahydro-1H-pyrazino[1,2-a]pyrazin-2-yl]-2-deuterio-quinoline-8-carbonitrile], the IC50 was determined as 4 nM on human TLR7 and 2 nM against human TLR8.

Consider `N#Cc1ccc(N2CCN3CCN(c4cccc5c4CNC5)CC3C2)c2cccnc12` (centres unmarked) [Example 35, 5-(8-isoindolin-4-yl-3,4,6,7,9,9a-hexahydro-1H-pyrazino[1,2-a]pyrazin-2-yl)quinoline-8-carbonitrile], for which the IC50 stood at 29 nM on human TLR7 and 8 nM against human TLR8.

As for `Cc1nc(N2CC(C)(N)C2)ccc1CN1CCN2[C@@H](C1)CN(c1ccc(C#N)c3ncccc13)C[C@H]2C` [Example 76, 5-[(4R,9aS)-8-[[6-(3-amino-3-methyl-azetidin-1-yl)-2-methyl-3-pyridyl]methyl]-4-methyl-3,4,6,7,9,9a-hexahydro-1H-pyrazino[1,2-a]pyrazin-2-yl]quinoline-8-carbonitrile], the IC50 on human TLR7 was determined as 16 nM; on human TLR8 it was 5 nM.

Regarding `CO[C@H]1CN(c2ccc(CCN3CCN4[C@@H](C3)CN(c3ccc(C#N)c5ncccc35)C[C@H]4C)cn2)C[C@@H]1N` [Example 25, 5-[(4R,9aS)-8-[2-[6-[(3S,4S)-3-amino-4-methoxy-pyrrolidin-1-yl]-3-pyridyl]ethyl]-4-methyl-3,4,6,7,9,9a-hexahydro-1H-pyrazino[1,2-a]pyrazin-2-yl]quinoline-8-carbonitrile], the values for the IC50 on human TLR7 and at human TLR8 were 13 nM and 25 nM, respectively.

For the compound `CO[C@@H]1CN(c2nccc(N3CCN4[C@@H](C3)CN(c3ccc(C#N)c5ncccc35)C[C@H]4C)n2)C[C@H]1N` [Example 36, 5-[(4R,9aR)-8-[2-[(3R,4R)-3-amino-4-methoxy-pyrrolidin-1-yl]pyrimidin-4-yl]-4-methyl-3,4,6,7,9,9a-hexahydro-1H-pyrazino[1,2-a]pyrazin-2-yl]quinoline-8-carbonitrile], the IC50 at human TLR7 came to 13 nM; against human TLR8 it was 15 nM.

On to `[2H]c1ccc2c(N3C[C@@H]4CN(c5ncc(N6CC7CC(C6)N7)cc5C)CCN4[C@@H](C)C3)ccc(C#N)c2n1` [Example 108, 5-[(4S,9aR)-8-[5-(3,6-diazabicyclo[3.1.1]heptan-3-yl)-3-methyl-2-pyridyl]-4-methyl-3,4,6,7,9,9a-hexahydro-1H-pyrazino[1,2-a]pyrazin-2-yl]-2-deuterio-quinoline-8-carbonitrile], for which the results for the IC50 on human TLR7 and against human TLR8 were 3 nM and 6 nM, respectively.

Turning to `C[C@@H]1CN(c2ccc(C#N)c3ncccc23)C[C@@H]2CN(c3ccnc(N4CCNCC4)c3)CCN21` [Example 32, 5-[(4R,9aS)-4-methyl-8-(2-piperazin-1-yl-4-pyridyl)-3,4,6,7,9,9a-hexahydro-1H-pyrazino[1,2-a]pyrazin-2-yl]quinoline-8-carbonitrile], the IC50 on human TLR7 stood at 16 nM; on human TLR8 it was 11 nM.

As for `CO[C@H]1CN(c2ccc(CCN3CCN4[C@@H](C3)CN(c3ccc(C#N)c5ncccc35)C[C@H]4C)cn2)C[C@H]1N` [Example 24, 5-[(4R,9aS)-8-[2-[6-[(3R,4S)-3-amino-4-methoxy-pyrrolidin-1-yl]-3-pyridyl]ethyl]-4-methyl-3,4,6,7,9,9a-hexahydro-1H-pyrazino[1,2-a]pyrazin-2-yl]quinoline-8-carbonitrile], the IC50 at human TLR7 was found to be 8 nM; against human TLR8 it was 15 nM.

As to `[2H]c1ccc2c(N3C[C@@H]4CN(c5ccc(CCN6C[C@H](OC)[C@@H](N)C6)cn5)CCN4[C@@H](C)C3)ccc(C#N)c2n1` [Example 122, 5-[(4S,9aR)-8-[5-[2-[(3S,4S)-3-amino-4-methoxy-pyrrolidin-1-yl]ethyl]-2-pyridyl]-4-methyl-3,4,6,7,9,9a-hexahydro-1H-pyrazino[1,2-a]pyrazin-2-yl]-2-deuterio-quinoline-8-carbonitrile], the IC50 was found to be 9 nM on human TLR7 and 3 nM against human TLR8.

With `Cc1nc(N2CCNCC2)ccc1CN1CCN2[C@@H](C1)CN(c1ccc(C#N)c3ncccc13)C[C@H]2C` [Example 60, 5-[(4R,9aS)-4-methyl-8-[(2-methyl-6-piperazin-1-yl-3-pyridyl)methyl]-3,4,6,7,9,9a-hexahydro-1H-pyrazino[1,2-a]pyrazin-2-yl]quinoline-8-carbonitrile], the IC50 at human TLR7 is 8 nM; against human TLR8, 14 nM.

The values above are taken from patent US20220340597A1, “HEXAHYDRO-1H-PYRAZINO[1,2-A]PYRAZINE COMPOUNDS FOR THE TREATMENT OF AUTOIMMUNE DISEASE” (Hoffmann-La Roche Inc., priority 2019, published 2022).
